# Source: article PMC3731256, “Optimization of Substituted 6-Salicyl-4-Anilinoquinazoline Derivatives as Dual EGFR/HER2 Tyrosine Kinase Inhibitors” (PLoS ONE, 2013)
# Tested on: A431 cells
# Experiment: Antiproliferation WST-1 assay, A431
# Assay type: cell-based, human
# Settings: Homo sapiens, A-431, WST-1 assay; A431, overexpression of EGFR; read-out: Cellular IC50, A431
# Experimental: (§1) WST-1 is better than MTT for analyzing cell proliferation, because it can be reduced to soluble formazan by dehydrogenase in mitochondria and has little toxicity to cells. Cell proliferation was determined using WST-1 dye (Beyotime Inst Biotech, China) according to manufacture’s instructions. Brieﬂy, 5 × 10^3 cells per well were seeded in a 96-well plate, grown at 37 ℃ for 24 h, and then placed in serum-starved conditions for a further 6 h. Subsequently, cells were treated with compounds (Table 1) at increasing concentrations in the presence of 10% FBS for 24 or 48h. After 10 µL WST-1 dye was added to each well, cells were incubated at 37 ℃ for 2 h and the absorbance was ﬁnally determined at 450 nm using a microplate reader.
row,Compound,IC50 [nM]
1,"O=C(Nc1ccc2ncnc(Nc3cccc(Cl)c3)c2c1)c1ccc(Cl)cc1O [Compound 23, 4-chloro-N-(4-(3-chlorophenylamino)quinazolin-6-yl)-2-hydroxybenzamide]",840 ± 9
2,"Oc1ccc(Br)cc1CNc1ccc2ncnc(Nc3cccc(Br)c3)c2c1 [Compound 11, 4-bromo-2-((4-(3-bromophenylamino)quinazolin-6-ylamino)methyl)phenol]",870 ± 9
3,"O=C(Nc1ccc2ncnc(Nc3cccc(Cl)c3)c2c1)c1cc(Br)ccc1O [Compound 25, 5-bromo-N-(4-(3-chlorophenylamino)quinazolin-6-yl)-2-hydroxybenzamide]",880 ± 11
4,"CCOc1ccccc1C(=O)Nc1ccc2ncnc(Nc3cccc(Cl)c3)c2c1 [Compound 26, N-(4-(3-chlorophenylamino)quinazolin-6-yl)-2-ethoxybenzamide]",760 ± 2
5,"Oc1c(Br)cc(Br)cc1CNc1ccc2ncnc(Nc3cccc(Cl)c3)c2c1 [Compound 16, 2,4-dibromo-6-((4-(3-chlorophenylamino)quinazolin-6-ylamino)methyl)phenol]",1320 ± 126
6,"Oc1c(Cl)cc(Cl)cc1CNc1ccc2ncnc(Nc3cccc(Br)c3)c2c1 [Compound 10, 2-((4-(3-bromophenylamino)quinazolin-6-ylamino)methyl)-4,6-dichlorophenol]",1030 ± 27
7,"Cc1ccc(C(=O)Nc2ccc3ncnc(Nc4cccc(Cl)c4)c3c2)c(O)c1 [Compound 24, N-(4-(3-chlorophenylamino)quinazolin-6-yl)-2-hydroxy-4-methylbenzamide]",630 ± 4
8,"O=C(Nc1ccc2ncnc(Nc3cccc(Br)c3)c2c1)c1cc(Br)cc(Br)c1O [Compound 20, 3,5-dibromo-N-(4-(3-bromophenylamino)quinazolin-6-yl)-2-hydroxybenzamide]",1390 ± 23
9,"O=C(Nc1ccc2ncnc(Nc3cccc(Br)c3)c2c1)c1cc(Br)ccc1O [Compound 18, 5-bromo-N-(4-(3-bromophenylamino)quinazolin-6-yl)-2-hydroxybenzamide]",1620 ± 8

# Same assay, conditions: Homo sapiens, A-431, read-out: Cellular IC50, A431
row,IC50 [nM],Compound
1,< 1000,"Nc1ccc2ncnc(Nc3cccc(Br)c3)c2c1 [Compound 7, N4-(3-bromophenyl)quinazoline-4,6-diamine]"

# Tested on: A549 cells
# Experiment: Antiproliferation WST-1 assay, A549
# Assay type: cell-based, human
# Settings: Homo sapiens, A549, read-out: Cellular IC50, A549
# Experimental: as §1
row,IC50 [nM],Compound
1,920 ± 13,"C#Cc1cccc(Nc2ncnc3cc(OCCOC)c(OCCOC)cc23)c1 [Erlotinib, reference compound]"

# Same assay, conditions: WST-1 assay; A549 carcinomic human alveolar basal epithelial cell; read-out: Cellular IC50, A549
row,Compound,IC50 [nM]
1,"O=C(Nc1ccc2ncnc(Nc3cccc(Cl)c3)c2c1)c1ccc(Cl)cc1O [Compound 23, 4-chloro-N-(4-(3-chlorophenylamino)quinazolin-6-yl)-2-hydroxybenzamide]",1360 ± 16
2,"Oc1ccc(Br)cc1CNc1ccc2ncnc(Nc3cccc(Br)c3)c2c1 [Compound 11, 4-bromo-2-((4-(3-bromophenylamino)quinazolin-6-ylamino)methyl)phenol]",2130 ± 128
3,"O=C(Nc1ccc2ncnc(Nc3cccc(Cl)c3)c2c1)c1cc(Br)ccc1O [Compound 25, 5-bromo-N-(4-(3-chlorophenylamino)quinazolin-6-yl)-2-hydroxybenzamide]",1690 ± 78
4,"CCOc1ccccc1C(=O)Nc1ccc2ncnc(Nc3cccc(Cl)c3)c2c1 [Compound 26, N-(4-(3-chlorophenylamino)quinazolin-6-yl)-2-ethoxybenzamide]",1580 ± 93
5,"Oc1c(Br)cc(Br)cc1CNc1ccc2ncnc(Nc3cccc(Cl)c3)c2c1 [Compound 16, 2,4-dibromo-6-((4-(3-chlorophenylamino)quinazolin-6-ylamino)methyl)phenol]",1650 ± 94
6,"Oc1c(Cl)cc(Cl)cc1CNc1ccc2ncnc(Nc3cccc(Br)c3)c2c1 [Compound 10, 2-((4-(3-bromophenylamino)quinazolin-6-ylamino)methyl)-4,6-dichlorophenol]",1930 ± 71
7,"Cc1ccc(C(=O)Nc2ccc3ncnc(Nc4cccc(Cl)c4)c3c2)c(O)c1 [Compound 24, N-(4-(3-chlorophenylamino)quinazolin-6-yl)-2-hydroxy-4-methylbenzamide]",1300 ± 12
8,"O=C(Nc1ccc2ncnc(Nc3cccc(Br)c3)c2c1)c1cc(Br)cc(Br)c1O [Compound 20, 3,5-dibromo-N-(4-(3-bromophenylamino)quinazolin-6-yl)-2-hydroxybenzamide]",1800 ± 167
9,"O=C(Nc1ccc2ncnc(Nc3cccc(Br)c3)c2c1)c1cc(Br)ccc1O [Compound 18, 5-bromo-N-(4-(3-bromophenylamino)quinazolin-6-yl)-2-hydroxybenzamide]",800 ± 4

# Tested on: MCF-7 cells
# Experiment: Antiproliferation WST-1 assay, MCF-7
# Assay type: cell-based, human
# Settings: Homo sapiens, MCF7, WST-1 assay; MCF-7 breast cancer, Her2/neu overexpression; read-out: Cellular IC50, MCF-7
# Experimental: as §1
row,Compound,IC50 [nM]
1,"O=C(Nc1ccc2ncnc(Nc3cccc(Cl)c3)c2c1)c1ccc(Cl)cc1O [Compound 23, 4-chloro-N-(4-(3-chlorophenylamino)quinazolin-6-yl)-2-hydroxybenzamide]",550 ± 7
2,"Oc1ccc(Br)cc1CNc1ccc2ncnc(Nc3cccc(Br)c3)c2c1 [Compound 11, 4-bromo-2-((4-(3-bromophenylamino)quinazolin-6-ylamino)methyl)phenol]",900 ± 18
3,"O=C(Nc1ccc2ncnc(Nc3cccc(Cl)c3)c2c1)c1cc(Br)ccc1O [Compound 25, 5-bromo-N-(4-(3-chlorophenylamino)quinazolin-6-yl)-2-hydroxybenzamide]",740 ± 13
4,"Nc1ccc2ncnc(Nc3cccc(Br)c3)c2c1 [Compound 7, N4-(3-bromophenyl)quinazoline-4,6-diamine]",< 1000
5,"CCOc1ccccc1C(=O)Nc1ccc2ncnc(Nc3cccc(Cl)c3)c2c1 [Compound 26, N-(4-(3-chlorophenylamino)quinazolin-6-yl)-2-ethoxybenzamide]",820 ± 82
6,"Oc1c(Br)cc(Br)cc1CNc1ccc2ncnc(Nc3cccc(Cl)c3)c2c1 [Compound 16, 2,4-dibromo-6-((4-(3-chlorophenylamino)quinazolin-6-ylamino)methyl)phenol]",990 ± 6
7,"Oc1c(Cl)cc(Cl)cc1CNc1ccc2ncnc(Nc3cccc(Br)c3)c2c1 [Compound 10, 2-((4-(3-bromophenylamino)quinazolin-6-ylamino)methyl)-4,6-dichlorophenol]",840 ± 4
8,"Cc1ccc(C(=O)Nc2ccc3ncnc(Nc4cccc(Cl)c4)c3c2)c(O)c1 [Compound 24, N-(4-(3-chlorophenylamino)quinazolin-6-yl)-2-hydroxy-4-methylbenzamide]",470 ± 4
9,"O=C(Nc1ccc2ncnc(Nc3cccc(Br)c3)c2c1)c1cc(Br)cc(Br)c1O [Compound 20, 3,5-dibromo-N-(4-(3-bromophenylamino)quinazolin-6-yl)-2-hydroxybenzamide]",1310 ± 29
10,"O=C(Nc1ccc2ncnc(Nc3cccc(Br)c3)c2c1)c1cc(Br)ccc1O [Compound 18, 5-bromo-N-(4-(3-bromophenylamino)quinazolin-6-yl)-2-hydroxybenzamide]",1230 ± 35

# Same assay, conditions: Homo sapiens, MCF7, read-out: Cellular IC50, MCF-7
row,IC50 [nM],Compound
1,1070 ± 28,"C#Cc1cccc(Nc2ncnc3cc(OCCOC)c(OCCOC)cc23)c1 [Erlotinib, reference compound]"

# Tested on: not given
# Experiment: not given
# Settings: not given
row,Compound,melting point [°C]
1,"O=C(Nc1ccc2ncnc(Nc3cccc(Cl)c3)c2c1)c1ccc(Cl)cc1O [Compound 23, 4-chloro-N-(4-(3-chlorophenylamino)quinazolin-6-yl)-2-hydroxybenzamide]",211 to 213
2,"Oc1ccc(Br)cc1CNc1ccc2ncnc(Nc3cccc(Br)c3)c2c1 [Compound 11, 4-bromo-2-((4-(3-bromophenylamino)quinazolin-6-ylamino)methyl)phenol]",189 to 191
3,"O=C(Nc1ccc2ncnc(Nc3cccc(Cl)c3)c2c1)c1cc(Br)ccc1O [Compound 25, 5-bromo-N-(4-(3-chlorophenylamino)quinazolin-6-yl)-2-hydroxybenzamide]",299 to 301
4,"CCOc1ccccc1C(=O)Nc1ccc2ncnc(Nc3cccc(Cl)c3)c2c1 [Compound 26, N-(4-(3-chlorophenylamino)quinazolin-6-yl)-2-ethoxybenzamide]",111 to 113
5,"Oc1c(Br)cc(Br)cc1CNc1ccc2ncnc(Nc3cccc(Cl)c3)c2c1 [Compound 16, 2,4-dibromo-6-((4-(3-chlorophenylamino)quinazolin-6-ylamino)methyl)phenol]",207 to 209
6,"Oc1c(Cl)cc(Cl)cc1CNc1ccc2ncnc(Nc3cccc(Br)c3)c2c1 [Compound 10, 2-((4-(3-bromophenylamino)quinazolin-6-ylamino)methyl)-4,6-dichlorophenol]",214 to 216
7,"Cc1ccc(C(=O)Nc2ccc3ncnc(Nc4cccc(Cl)c4)c3c2)c(O)c1 [Compound 24, N-(4-(3-chlorophenylamino)quinazolin-6-yl)-2-hydroxy-4-methylbenzamide]",257 to 258
8,"O=C(Nc1ccc2ncnc(Nc3cccc(Br)c3)c2c1)c1cc(Br)cc(Br)c1O [Compound 20, 3,5-dibromo-N-(4-(3-bromophenylamino)quinazolin-6-yl)-2-hydroxybenzamide]",274 to 276
9,"O=C(Nc1ccc2ncnc(Nc3cccc(Br)c3)c2c1)c1cc(Br)ccc1O [Compound 18, 5-bromo-N-(4-(3-bromophenylamino)quinazolin-6-yl)-2-hydroxybenzamide]",297 to 299

# Biological target: T1, human EGFR (Homo sapiens, UniProt P00533)
# T1 construct: the cytoplasmic domain (amino acids 669-1210) of human EGFR; FLAG (DYKDDDD) (N); made in house
# T1 sequence (P00533 669-1210): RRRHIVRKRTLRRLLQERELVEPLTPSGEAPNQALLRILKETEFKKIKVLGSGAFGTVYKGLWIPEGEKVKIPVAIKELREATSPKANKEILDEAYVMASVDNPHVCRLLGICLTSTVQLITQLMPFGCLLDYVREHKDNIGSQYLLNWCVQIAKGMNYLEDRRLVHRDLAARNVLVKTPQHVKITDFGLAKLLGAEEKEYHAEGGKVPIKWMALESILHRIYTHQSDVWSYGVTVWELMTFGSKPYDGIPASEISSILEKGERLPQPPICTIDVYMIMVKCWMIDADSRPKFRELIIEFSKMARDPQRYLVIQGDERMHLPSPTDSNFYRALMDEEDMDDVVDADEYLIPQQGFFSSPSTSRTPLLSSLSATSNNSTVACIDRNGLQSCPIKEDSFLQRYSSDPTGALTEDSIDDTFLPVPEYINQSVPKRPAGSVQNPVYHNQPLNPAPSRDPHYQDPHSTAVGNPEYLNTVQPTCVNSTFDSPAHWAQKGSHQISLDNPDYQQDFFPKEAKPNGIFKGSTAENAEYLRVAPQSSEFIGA
# Experiment: EGFR kinase assay ([γ-32P] ATP, poly-Glu-Tyr)
# Assay type: biochemical
# Settings: phosphorylation of poly-Glu-Tyr copolymer; mean, >1 determination; read-out: Enzyme activity IC50 against EGFR kinase
# Experimental: (§2) The expressed HER2 kinase and EGFR kinase were purified by anti-FLAG M2 affinity gel (Sigma-Aldrich, USA). The HER2 and EGFR kinase assays were performed using radiolabeled [γ-^32P] ATP (GEHealthcare, USA) in 96-well plates. The kinase reactions were performed in 50 mmol/L Tris-HCl, pH7.5, 5 mmol/L MnCl2, 0.01% Tween-20 and 2 mmol/L DTT containing 0.9 μCi of [γ-^32P] ATP per reaction, 50 μmol/L ATP, 5 μg/mL poly-Glu-Tyr (4:1) and 0.25 μg/mL of purified Her2 or EGFR cytoplasmic domain in a total volume of 50 μL. […] Kinase reactions were initiated by adding ATP. After the kinase reaction incubated for 10 minutes at room temperature, reactions were terminated by the addition of 10% (final concentration) trichloroacetic acid. The [γ-^32P]-phosphorylated proteins were filtered in a harvest plate (Millipore, USA) with a cell harvester (PerkinElmer, USA) and washed free of [γ-^32P] ATP with 3% phosphoric acid. The plates were dried, followed by the addition of 25 μL of MicroScintO (PerkinElmer, USA). Radioactivity was counted by a Topcount scintillation counter (PerkinElmer, USA).
row,Compound,IC50 [nM]
1,"O=C(Nc1ccc2ncnc(Nc3cccc(Cl)c3)c2c1)c1ccc(Cl)cc1O [Compound 23, 4-chloro-N-(4-(3-chlorophenylamino)quinazolin-6-yl)-2-hydroxybenzamide]",320 ± 8
2,"Oc1ccc(Br)cc1CNc1ccc2ncnc(Nc3cccc(Br)c3)c2c1 [Compound 11, 4-bromo-2-((4-(3-bromophenylamino)quinazolin-6-ylamino)methyl)phenol]",570 ± 8
3,"O=C(Nc1ccc2ncnc(Nc3cccc(Cl)c3)c2c1)c1cc(Br)ccc1O [Compound 25, 5-bromo-N-(4-(3-chlorophenylamino)quinazolin-6-yl)-2-hydroxybenzamide]",580 ± 7
4,"CCOc1ccccc1C(=O)Nc1ccc2ncnc(Nc3cccc(Cl)c3)c2c1 [Compound 26, N-(4-(3-chlorophenylamino)quinazolin-6-yl)-2-ethoxybenzamide]",6300 ± 76
5,"Oc1c(Br)cc(Br)cc1CNc1ccc2ncnc(Nc3cccc(Cl)c3)c2c1 [Compound 16, 2,4-dibromo-6-((4-(3-chlorophenylamino)quinazolin-6-ylamino)methyl)phenol]",890 ± 53
6,"Oc1c(Cl)cc(Cl)cc1CNc1ccc2ncnc(Nc3cccc(Br)c3)c2c1 [Compound 10, 2-((4-(3-bromophenylamino)quinazolin-6-ylamino)methyl)-4,6-dichlorophenol]",720 ± 36
7,"Cc1ccc(C(=O)Nc2ccc3ncnc(Nc4cccc(Cl)c4)c3c2)c(O)c1 [Compound 24, N-(4-(3-chlorophenylamino)quinazolin-6-yl)-2-hydroxy-4-methylbenzamide]",490 ± 3
8,"O=C(Nc1ccc2ncnc(Nc3cccc(Br)c3)c2c1)c1cc(Br)cc(Br)c1O [Compound 20, 3,5-dibromo-N-(4-(3-bromophenylamino)quinazolin-6-yl)-2-hydroxybenzamide]",1400 ± 23
9,"O=C(Nc1ccc2ncnc(Nc3cccc(Br)c3)c2c1)c1cc(Br)ccc1O [Compound 18, 5-bromo-N-(4-(3-bromophenylamino)quinazolin-6-yl)-2-hydroxybenzamide]",1300 ± 98

# Biological target: T2, human HER2 (Homo sapiens, UniProt P04626)
# T2 construct: The cytoplasmic domain (amino acids 676-1255) of human HER2; FLAG (DYKDDDD) (N); made in house
# T2 sequence (P04626 676-1255): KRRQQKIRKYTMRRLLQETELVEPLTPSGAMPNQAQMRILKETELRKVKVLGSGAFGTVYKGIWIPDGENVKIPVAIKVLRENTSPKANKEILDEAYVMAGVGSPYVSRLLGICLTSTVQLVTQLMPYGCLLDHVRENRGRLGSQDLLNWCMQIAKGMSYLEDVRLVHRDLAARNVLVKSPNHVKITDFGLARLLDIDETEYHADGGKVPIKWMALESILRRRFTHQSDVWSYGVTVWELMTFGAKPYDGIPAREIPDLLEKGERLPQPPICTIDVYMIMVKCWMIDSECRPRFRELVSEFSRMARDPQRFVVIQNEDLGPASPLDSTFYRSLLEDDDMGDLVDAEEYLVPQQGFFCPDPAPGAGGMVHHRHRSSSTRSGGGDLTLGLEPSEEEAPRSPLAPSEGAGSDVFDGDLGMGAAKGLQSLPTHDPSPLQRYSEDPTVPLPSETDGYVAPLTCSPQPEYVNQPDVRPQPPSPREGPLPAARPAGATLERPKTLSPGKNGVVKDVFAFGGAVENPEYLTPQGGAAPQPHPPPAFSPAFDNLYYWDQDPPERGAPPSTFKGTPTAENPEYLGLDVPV
# Experiment: HER2 kinase assay ([γ-32P] ATP, poly-Glu-Tyr)
# Assay type: biochemical
# Settings: phosphorylation of poly-Glu-Tyr copolymer; mean, >1 determination; read-out: Enzyme activity IC50 against HER2 kinase
# Experimental: as §2
row,Compound,IC50 [nM]
1,"O=C(Nc1ccc2ncnc(Nc3cccc(Cl)c3)c2c1)c1ccc(Cl)cc1O [Compound 23, 4-chloro-N-(4-(3-chlorophenylamino)quinazolin-6-yl)-2-hydroxybenzamide]",1200 ± 22
2,"Oc1ccc(Br)cc1CNc1ccc2ncnc(Nc3cccc(Br)c3)c2c1 [Compound 11, 4-bromo-2-((4-(3-bromophenylamino)quinazolin-6-ylamino)methyl)phenol]",1400 ± 3
3,"O=C(Nc1ccc2ncnc(Nc3cccc(Cl)c3)c2c1)c1cc(Br)ccc1O [Compound 25, 5-bromo-N-(4-(3-chlorophenylamino)quinazolin-6-yl)-2-hydroxybenzamide]",2600 ± 133
4,"CCOc1ccccc1C(=O)Nc1ccc2ncnc(Nc3cccc(Cl)c3)c2c1 [Compound 26, N-(4-(3-chlorophenylamino)quinazolin-6-yl)-2-ethoxybenzamide]",4100 ± 91
5,"Oc1c(Br)cc(Br)cc1CNc1ccc2ncnc(Nc3cccc(Cl)c3)c2c1 [Compound 16, 2,4-dibromo-6-((4-(3-chlorophenylamino)quinazolin-6-ylamino)methyl)phenol]",2100 ± 8.7
6,"Oc1c(Cl)cc(Cl)cc1CNc1ccc2ncnc(Nc3cccc(Br)c3)c2c1 [Compound 10, 2-((4-(3-bromophenylamino)quinazolin-6-ylamino)methyl)-4,6-dichlorophenol]",1100 ± 95
7,"Cc1ccc(C(=O)Nc2ccc3ncnc(Nc4cccc(Cl)c4)c3c2)c(O)c1 [Compound 24, N-(4-(3-chlorophenylamino)quinazolin-6-yl)-2-hydroxy-4-methylbenzamide]",2000 ± 182
8,"O=C(Nc1ccc2ncnc(Nc3cccc(Br)c3)c2c1)c1cc(Br)cc(Br)c1O [Compound 20, 3,5-dibromo-N-(4-(3-bromophenylamino)quinazolin-6-yl)-2-hydroxybenzamide]",2100 ± 66
9,"O=C(Nc1ccc2ncnc(Nc3cccc(Br)c3)c2c1)c1cc(Br)ccc1O [Compound 18, 5-bromo-N-(4-(3-bromophenylamino)quinazolin-6-yl)-2-hydroxybenzamide]",1600 ± 12
